Test results: US20120094989A1, “5-HT RECEPTOR MODULATING COMPOUNDS” (priority 2009, published 2012)
Values joined by “and” are separate entries in the source; they are usually repeats but may differ in a detail not shown here. Identical values can stand only once. Like-named read-outs stand apart in the source and are kept apart here.

What was measured:
hERG ion channel = biological target: T1, hERG ion channel (Homo sapiens, UniProt Q12809); experiment: hERG tail current, patch-clamp in HEK-293 cells stably transfected with hERG; assay type: cell-based
T1 construct: expressed in transfected cells; host or cells: HEK-293, stably transfected
T1 sequence (Q12809 whole entry): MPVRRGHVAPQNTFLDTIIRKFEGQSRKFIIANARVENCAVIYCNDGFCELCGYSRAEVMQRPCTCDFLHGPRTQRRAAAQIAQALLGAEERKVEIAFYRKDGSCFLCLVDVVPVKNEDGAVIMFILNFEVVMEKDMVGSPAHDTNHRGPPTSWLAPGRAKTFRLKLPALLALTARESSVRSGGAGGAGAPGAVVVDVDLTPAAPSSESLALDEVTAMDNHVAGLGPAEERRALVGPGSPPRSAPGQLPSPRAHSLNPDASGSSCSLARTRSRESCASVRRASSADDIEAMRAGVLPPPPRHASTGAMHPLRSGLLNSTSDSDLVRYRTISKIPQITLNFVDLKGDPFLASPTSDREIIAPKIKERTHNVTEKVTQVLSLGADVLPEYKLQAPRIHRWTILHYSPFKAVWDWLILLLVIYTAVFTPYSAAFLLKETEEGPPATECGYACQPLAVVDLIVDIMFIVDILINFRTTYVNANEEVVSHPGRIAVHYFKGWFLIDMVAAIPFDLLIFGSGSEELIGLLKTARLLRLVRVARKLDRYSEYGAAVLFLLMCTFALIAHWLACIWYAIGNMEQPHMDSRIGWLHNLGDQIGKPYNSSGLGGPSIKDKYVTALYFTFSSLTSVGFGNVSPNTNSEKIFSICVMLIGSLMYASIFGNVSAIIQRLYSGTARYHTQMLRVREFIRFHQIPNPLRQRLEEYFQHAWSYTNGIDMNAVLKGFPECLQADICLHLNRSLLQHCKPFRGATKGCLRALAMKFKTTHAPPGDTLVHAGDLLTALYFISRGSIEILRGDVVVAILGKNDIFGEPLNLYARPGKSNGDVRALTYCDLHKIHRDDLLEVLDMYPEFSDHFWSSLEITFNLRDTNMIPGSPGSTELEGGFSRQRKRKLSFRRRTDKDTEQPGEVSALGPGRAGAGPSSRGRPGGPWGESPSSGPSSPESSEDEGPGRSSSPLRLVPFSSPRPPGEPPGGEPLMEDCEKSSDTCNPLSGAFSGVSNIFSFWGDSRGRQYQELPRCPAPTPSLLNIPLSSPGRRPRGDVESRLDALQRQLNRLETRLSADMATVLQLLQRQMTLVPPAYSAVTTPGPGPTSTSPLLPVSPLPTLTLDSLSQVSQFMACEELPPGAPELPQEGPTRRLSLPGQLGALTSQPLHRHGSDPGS
Protocol: The purpose of this study was to assess the effects of the above compounds on hERG (human ether-a-go-go related gene) tail current by examining the acute effect of the test compounds on the hERG ion channel in an appropriate in vitro test system. The human embryonic kidney cell (HEK-293), which has been stably transfected with hERG ion channel cDNA, is a preparation that is considered suitable for this purpose.
Four concentrations of each test compound were tested in a screening assay to determine the liability to block hERG channels. Using the patch-clamp technique, peak hERG tail current amplitude was measured prior to and following exposure to the compounds at the following nominal concentrations:
for approximately 7 to 32 minutes (n=3 cells for each concentration). In addition, peak hERG tail current amplitude was measured in a separate group of 3 cells, prior to and following exposure to vehicle (0.1% DMSO) for time-matched vehicle data correction. Terfenadine (at the submaximally effective concentration of 50 nM, n=3), a known inhibitor of the IKr current, was used as a positive control compound.
The test compound data were corrected for the mean effect of vehicle and rundown and the concentration-response data were plotted and fitted with a sigmoidal function, from which the IC50 values for each compound were calculated.

human 5-HT4(b) receptor [1] = biological target: T2, human 5-HT4(b) receptor (Homo sapiens, UniProt Q13639); experiment: Adenylyl cyclase assay (antagonist pKb, agonist/antagonist properties); assay type: biochemical; settings: membranes of HEK293 cells stably expressing human 5-HT4(b) receptor; for Kb: hyphen-separated values taken as single determinations
T2 sequence (Q13639 whole entry): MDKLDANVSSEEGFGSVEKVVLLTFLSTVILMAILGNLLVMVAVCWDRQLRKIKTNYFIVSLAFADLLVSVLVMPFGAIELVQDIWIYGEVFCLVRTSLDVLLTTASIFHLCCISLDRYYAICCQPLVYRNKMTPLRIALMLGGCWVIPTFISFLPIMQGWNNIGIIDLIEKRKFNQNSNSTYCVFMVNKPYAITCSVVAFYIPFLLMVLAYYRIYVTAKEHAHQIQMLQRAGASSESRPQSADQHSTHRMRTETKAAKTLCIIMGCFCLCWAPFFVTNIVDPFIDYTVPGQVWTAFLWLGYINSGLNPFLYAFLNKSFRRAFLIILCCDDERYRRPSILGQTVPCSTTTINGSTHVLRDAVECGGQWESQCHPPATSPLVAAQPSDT
Protocol: (§1) The development of HEK293 cell lines stably expressing human 5-HT4(b) receptors was described and published previously (Bach et al. 2001). Briefly, HEK293 cells (ATCC) were grown in Dulbecco's modified Eagle's medium with 10% foetal calf serum and penicillin (100 U/ml) and streptomycin (100 μg/ml). Cells were transfected with plasmid DNA (pcDNA3.1(−) containing human 5-HT4(b) receptor cDNA) using SuperFect Transfection Reagent (QIAGEN) according to the manufacturers protocol. Serial dilutions of transfected cells were plated in 96 well plates containing G418 (geneticin; Amersham) at 0.4 mg/ml, and isolated single colonies of cells transformed to the neomycin-resistant phenotype were expanded and tested for expression of serotonin receptors by measuring serotonin-stimulated adenylyl cyclase activity (Themmen et al. 1993). Transformed cells were always grown in the presence of G418 (0.4 mg/ml). For binding and adenylyl cyclase analysis, stable cell lines were grown and maintained in UltraCULTURE™ general purpose serum-free medium (BioWhittaker, Walkersville, Md., USA), supplemented with L-glutamine (2 mM), penicillin (100 U/ml) and streptomycin (100 μg/ml).
(§2) Membranes were prepared from stably transfected HEK293 cells cultured on 150-mm cell culture dishes and grown to 80% confluence in serum-free medium (UltraCULTURE™, BioWhittaker) with penicillin (10 U/ml) and 2 mM L-Glutamine (BioWhittaker). Cells were washed twice with 10 ml ice-cold HBSS, scraped with a rubber policeman in 10 ml ice-cold HBSS and collected by centrifugation at 800 g for 5 min at 4° C. The cell pellet was resuspended in 1 ml/dish ice-cold STE buffer (27% (w/v) sucrose, 50 mM Tris-HCl, pH 7.5 at 20° C., 5 mM EDTA) and homogenized with an Ultra-Turrax (IKA) homogenizer, using five 10 s bursts with 30 s cooling in ice-water between bursts. To remove nuclei, the homogenate was centrifuged at 300 g for 5 min at 4° C. and the supernatant was further centrifuged at 17000 g for 20 min at 4° C. and the supernatant removed. The crude membrane pellet was resuspended with ten strokes of tight fitting pestle B in a Dounce glass-glass homogenizer in 1 ml/dish ice-cold TE (50 mM Tris-HCl, pH 7.5 at RT, 5 mM EDTA). This procedure was repeated twice and the resuspended membranes were finally aliquotted and flash frozen in liquid nitrogen and stored at −70° C. until use.
Adenylyl cyclase activity was measured in membranes of HEK293 cells stably expressing the human 5-HT4(b) receptor (refs.) by determining conversion of [α-^32P]ATP to [^32P]cAMP in membranes prepared in STE by homogenization of cells grown and washed as described above in a Dounce glass-glass homogenizer by 10 strokes with the tight-fitting pestle. Membranes were kept on ice prior to assay. Adenylyl cyclase activities were measured in 10-μl aliquots in a final volume of 50 μl in the presence of 0.1 mM [α-^32P]ATP (1-2×10^6 cpm/assay), 4 mM MgCl2, 20 μM GTP, 1 mM EDTA, 1 mM [^3H]cAMP (ca. 10,000 cpm/assay), […] 3-isobutyl-1-methyl xanthine (IBMX; Sigma), a nucleoside triphosphate regenerating system consisting of 20 mM creatine phosphate (Sigma), 0.2 mg/ml creatine phosphokinase (Sigma) and 40 U/ml myokinase (Sigma) and additives described in the text and figures. When forskolin (Calbiochem, La Jolla, Calif., USA) was used the concentration was 100 μM. Incubations were for 20 min at 32° C. Cyclic AMP formed was quantified by the double column chromatography system of Salomon et al. (1974) as modified by Bockaert et al. (1976).
(§3) Binding and adenylyl cyclase data were analyzed by non-linear regression using Microsoft Excel with the Solver add-in, using the below equations.
Activation of adenylyl cyclase—The data were fit to the equation
where a is basal adenylyl cyclase activity, b is maximal adenylyl cyclase activity stimulated by the agonist, c is EC50, and x is the concentration of agonist.
(§4) IC50 values from competitive binding assays were converted to Kb values by the method of Cheng and Prusoff (1973).

human 5-HT4(b) receptor [2] = biological target: T2, human 5-HT4(b) receptor; experiment: Radioligand binding assay with [3H]GR113808
Protocol: as §1, §2
Binding assays were performed on membranes of HEK293 cells stably expressing the human 5-HT4(b) receptor (refs.) in 96-well, round-bottom microtiter plates with total reaction volumes of 50-200 μl, containing the indicated concentration of [^3H]GR113808 with or without competing unlabelled ligand in a binding buffer containing 50 mM Tris-HCl (pH 7.5 at RT), 1 mM EDTA, 5 mM EGTA, 2 mM MgCl2, 1 mM ascorbate, 0.1% BSA and 100 μM GTP. The plates were incubated at 23 EC for 60 min and harvested onto UniFilter™-96 GF/C™ (Packard Instrument Co., Meriden, Conn., USA), presoaked in 0.3% polyethyleneimine (Sigma), using a Packard FilterMate Universal Harvester with 96-well format, and washed 4-6 times with approximately 0.25 ml/well of ice-cold buffer, containing 50 mM Tris-HCl (pH 7.0 at RT) and 2 mM MgCl2. The filters were dried and counted at approximately 40% efficiency in a Top-Count liquid scintillation counter (Packard), using 20 μl per filter well of Micro-Scint liquid scintillation cocktail (Packard).
as §3
Competitive binding assays—The data were fit to the equation
where a is non-specific binding, b is total binding in the absence of competitor, c is IC50, and x is the concentration of competitor. Where relevant, relative binding data were obtained by recalculating the data using a=0 and b=100.
as §4

[3] = peak hERG tail current, HEK-293, corrected for vehicle and rundown, sigmoidal fit, read-out: hERG IC50
[4] = [3H]GR113808 competition, membranes of HEK293 cells stably expressing human 5-HT4(b) receptor, hyphen-separated values taken as single determinations, read-out: Binding affinity (pKd value) (converted)
[5] = read-out: Antagonist pKb value (converted)

With `O=C(O)c1ccccc1-c1ccc(CN2CCC(COC(=O)c3c4n(c5ccccc35)CCCO4)CC2)cc1` [Compound 8] the IC50 (hERG ion channel; [3]) was 47500 nM, the Kb (human 5-HT4(b) receptor [1]; Antagonist pKb value) was 0.0631 nM and 0.331 nM and the Kd (human 5-HT4(b) receptor [2]) was 0.0363 nM and 0.0776 nM.
In the case of `COC(=O)c1ccccc1-c1ccc(CN2CCC(CNC(=O)c3cc(Cl)c(N)cc3OC)CC2)cc1` [Compound 17], the Kd (human 5-HT4(b) receptor [2]; [4]) is reported as 3.72 nM and 5.01 nM.
For `Cn1cc(C(=O)OCC2CCN(CCNS(C)(=O)=O)CC2)c2ccccc21` [GR113808, 1-methyl-1H-indole-3-carboxylic acid, [1-[2-[(methylsulfonyl)amino]ethyl]-4-piperidinyl]methyl ester, reference compound], the Kb (human 5-HT4(b) receptor [1]; Antagonist pKb value) was 0.0891 nM, the Agonist/Antagonist properties (human 5-HT4(b) receptor [1]) was “Antagonist” and the Kd (human 5-HT4(b) receptor [2]) was 0.112 nM and 0.0389 nM.
For `O=C(NCC1CCN(Cc2ccc(-c3ccccc3-c3nn[nH]n3)cc2)CC1)c1c2n(c3ccccc13)CCCO2` [Compound 2], the IC50 (hERG ion channel; [3]) was 27500 nM, the Agonist/Antagonist properties (human 5-HT4(b) receptor [1]) was “Antagonist” and the Kd (human 5-HT4(b) receptor [2]) was 3.89 nM and 4.17 nM and 4.37 nM.
For `O=C(OCC1CCN(C2CCC(C(=O)O)C2)CC1)c1c2n(c3ccccc13)CCCO2` (stereo not shown) [Compound 24], the IC50 (hERG ion channel; [3]) was 209000 nM, the Agonist/Antagonist properties (human 5-HT4(b) receptor [1]) was “Antagonist” and the Kb (human 5-HT4(b) receptor [1]; [5]) was 2.51 nM. The Kd (human 5-HT4(b) receptor [2]) was 1.15 nM.
`O=C(OCC1CCN(Cc2ccc(-c3ccccc3-c3nn[nH]n3)cc2)CC1)c1c2n(c3ccccc13)CCCO2` [Compound 4] showed a Kb (human 5-HT4(b) receptor [1]; Antagonist pKb value) of 0.00447 nM.
In the case of `O=C(OCC1CCN(C2CCCC(C(=O)O)C2)CC1)c1c2n(c3ccccc13)CCCO2` (stereo not shown) [Compound 25], the Agonist/Antagonist properties (human 5-HT4(b) receptor [1]) is reported as “Antagonist”, the Kb (human 5-HT4(b) receptor [1]; [5]) is reported as 2.51 nM and the Kd (human 5-HT4(b) receptor [2]) is reported as 1.2 nM.
For `CC(C(=O)O)c1ccc(CN2CCC(COC(=O)c3c4n(c5ccccc35)CCCO4)CC2)cc1` (stereo not shown) [Compound 27], the IC50 (hERG ion channel) was 25000 nM, the Kb (human 5-HT4(b) receptor [1]; Antagonist pKb value) was 1.62 nM and the Kd (human 5-HT4(b) receptor [2]) was 0.513 nM.
In the case of `COc1cc(N)c(Cl)cc1C(=O)NCC1CCN(Cc2ccc(-c3ccccc3C(=O)O)cc2)CC1` [Compound 18], the Kd (human 5-HT4(b) receptor [2]; [4]) is reported as 174 nM and 126 nM.
In the case of `COC(=O)c1ccccc1-c1ccc(CN2CCC(COC(=O)c3c4n(c5ccccc35)CCCO4)CC2)cc1` [Compound 7], the IC50 (hERG ion channel) is reported as 131 nM, the Kb (human 5-HT4(b) receptor [1]; Antagonist pKb value) is reported as 0.0132 nM and 0.0479 nM and the Kd (human 5-HT4(b) receptor [2]) is reported as 0.00251 nM.
`COc1cc(N)c(Cl)cc1C(=O)NCC1CCN(Cc2ccc(-c3ccccc3-c3nn[nH]n3)cc2)CC1` [Compound 20] was tested, and the Kd (human 5-HT4(b) receptor [2]; [4]) was 18.6 nM and 27.5 nM.
For `CCCCN1CCC(CNC(=O)c2c3n(c4ccccc24)CCCO3)CC1` [SB207266, reference compound], the Agonist/Antagonist properties (human 5-HT4(b) receptor [1]) was “Antagonist”, the Kb (human 5-HT4(b) receptor [1]; [5]) was 0.0537 nM and 0.0372 nM and 0.269 nM and the Kd (human 5-HT4(b) receptor [2]; [4]) was 0.263 nM and 0.209 nM and 0.166 nM and 0.0355 nM and 0.0407 nM.
`O=C(OCC1CCN(C2C3CC4C(C3C(=O)O)C42)CC1)c1c2n(c3ccccc13)CCCO2` (stereo not shown) [Compound 23] was tested, and the Kb (human 5-HT4(b) receptor [1]; Antagonist pKb value) was 3.63 nM, the Agonist/Antagonist properties (human 5-HT4(b) receptor [1]) was “Antagonist” and the Kd (human 5-HT4(b) receptor [2]) was 1.51 nM.
`CC(C)(C(=O)O)c1ccc(CN2CCC(COC(=O)c3c4n(c5ccccc35)CCCO4)CC2)cc1` [Compound 29] showed a Kb (human 5-HT4(b) receptor [1]; [5]) of 1.66 nM and a Kd (human 5-HT4(b) receptor [2]) of 0.355 nM.
